In ChEMBL document CHEMBL2413072, “Synthesis and in vitro anticancer studies of novel C-2 arylidene congeners of lantadenes” (2013):

Assays:
Format in all cases: functional
[1] = system: SF-295; assay: Growth inhibition of human SF295 cells assessed as cell growth at 10^-7 M by sulforhodamine B assay; settings: read-out: Activity
[2] = system: SK-MEL-5; assay: Growth inhibition of human SK-MEL-5 cells assessed as cell growth at 10^-4 M by sulforhodamine B assay; settings: read-out: Activity
[3] = system: A549; assay: Growth inhibition of human A549/ATCC cells assessed as cell growth at 10^-8 M by sulforhodamine B assay; settings: read-out: Activity
[4] = system: SW-620; assay: Growth inhibition of human SW620 cells by sulforhodamine B assay
[5] = system: HOP-92; assay: Growth inhibition of human HOP92 cells assessed as cell growth at 10^-7 M by sulforhodamine B assay; settings: read-out: Activity
[6] = system: K562; assay: Growth inhibition of human K562 cells assessed as cell growth at 10^-6 M by sulforhodamine B assay; settings: read-out: Activity
[7] = system: HT-29; assay: Growth inhibition of human HT-29 cells assessed as cell growth at 10^-7 M by sulforhodamine B assay; settings: read-out: Activity
[8] = system: CAKI-1; assay: Growth inhibition of human CAKI-1 cells assessed as cell growth at 10^-7 M by sulforhodamine B assay; settings: read-out: Activity
[9] = system: MCF7; assay: Growth inhibition of human MCF7 cells assessed as cell growth at 10^-7 M by sulforhodamine B assay; settings: read-out: Activity
[10] = system: MDA-MB-231; assay: Growth inhibition of human MDA-MB-231 cells assessed as cell growth at 10^-8 M by sulforhodamine B assay; settings: read-out: Activity
[11] = system: SF-268; assay: Growth inhibition of human SF268 cells assessed as cell growth at 10^-8 M by sulforhodamine B assay; settings: read-out: Activity
[12] = system: T47D; assay: Growth inhibition of human T47D cells assessed as cell growth at 10^-7 M by sulforhodamine B assay; settings: read-out: Activity
[13] = system: RXF 393; assay: Growth inhibition of human RXF393 cells assessed as cell growth at 10^-6 M by sulforhodamine B assay; settings: read-out: Activity
[14] = system: HOP-62; assay: Growth inhibition of human HOP62 cells assessed as cell growth at 10^-8 M by sulforhodamine B assay; settings: read-out: Activity
[15] = Growth inhibition of human HCC2998 cells by sulforhodamine B assay
[16] = system: SR; assay: Growth inhibition of human SR cells assessed as cell growth at 10^-8 M by sulforhodamine B assay; settings: read-out: Activity
[17] = system: HOP-62; assay: Growth inhibition of human HOP62 cells assessed as cell growth at 10^-6 M by sulforhodamine B assay; settings: read-out: Activity
[18] = system: ACHN; assay: Growth inhibition of human ACHN cells assessed as cell growth at 10^-8 M by sulforhodamine B assay; settings: read-out: Activity
[19] = system: NCI-H23; assay: Growth inhibition of human NCI-H23 cells by sulforhodamine B assay
[20] = Growth inhibition of human HCC2998 cells assessed as cell growth at 10^-7 M by sulforhodamine B assay; settings: HCC 2998, read-out: Activity
[21] = system: SF-268; assay: Growth inhibition of human SF268 cells assessed as cell growth at 10^-6 M by sulforhodamine B assay; settings: read-out: Activity
[22] = system: A549; assay: Growth inhibition of human A549/ATCC cells assessed as cell growth at 10^-4 M by sulforhodamine B assay; settings: read-out: Activity
[23] = system: TK-10; assay: Growth inhibition of human TK10 cells assessed as cell growth at 10^-7 M by sulforhodamine B assay; settings: read-out: Activity
[24] = system: HOP-92; assay: Growth inhibition of human HOP92 cells assessed as cell growth at 10^-4 M by sulforhodamine B assay; settings: read-out: Activity
[25] = system: RPMI-8226; assay: Growth inhibition of human RPMI8226 cells by sulforhodamine B assay
[26] = system: CAKI-1; assay: Growth inhibition of human CAKI-1 cells assessed as cell growth at 10^-4 M by sulforhodamine B assay; settings: read-out: Activity
[27] = system: SNB-75; assay: Growth inhibition of human SNB75 cells assessed as cell growth at 10^-8 M by sulforhodamine B assay; settings: read-out: Activity
[28] = system: MCF7; assay: Growth inhibition of human MCF7 cells assessed as cell growth at 10^-4 M by sulforhodamine B assay; settings: read-out: Activity
[29] = system: K562; assay: Growth inhibition of human K562 cells assessed as cell growth at 10^-4 M by sulforhodamine B assay; settings: read-out: Activity
[30] = system: T47D; assay: Growth inhibition of human T47D cells assessed as cell growth at 10^-6 M by sulforhodamine B assay; settings: read-out: Activity
[31] = system: A549; assay: Growth inhibition of human A549/ATCC cells by sulforhodamine B assay
[32] = system: MOLT-4; assay: Growth inhibition of human MOLT4 cells assessed as cell growth at 10^-7 M by sulforhodamine B assay; settings: read-out: Activity
[33] = system: SK-MEL-2; assay: Growth inhibition of human SK-MEL-2 cells assessed as cell growth at 10^-4 M by sulforhodamine B assay; settings: read-out: Activity
[34] = system: OVCAR-4; assay: Growth inhibition of human OVCAR4 cells assessed as cell growth at 10^-7 M by sulforhodamine B assay; settings: read-out: Activity
[35] = system: SK-MEL-5; assay: Growth inhibition of human SK-MEL-5 cells assessed as cell growth at 10^-7 M by sulforhodamine B assay; settings: read-out: Activity
[36] = system: NCI-H522; assay: Growth inhibition of human NCI-H522 cells assessed as cell growth at 10^-4 M by sulforhodamine B assay; settings: read-out: Activity
[37] = system: T47D; assay: Growth inhibition of human T47D cells by sulforhodamine B assay
[38] = system: U-251; assay: Growth inhibition of human U251 cells assessed as cell growth at 10^-4 M by sulforhodamine B assay; settings: read-out: Activity
[39] = system: SW-620; assay: Growth inhibition of human SW620 cells assessed as cell growth at 10^-8 M by sulforhodamine B assay; settings: read-out: Activity
[40] = system: A549; assay: Growth inhibition of human A549/ATCC cells assessed as cell growth at 10^-6 M by sulforhodamine B assay; settings: read-out: Activity
[41] = system: HCT-116; assay: Growth inhibition of human HCT116 cells assessed as cell growth at 10^-8 M by sulforhodamine B assay; settings: read-out: Activity
[42] = system: SF-268; assay: Growth inhibition of human SF268 cells assessed as cell growth at 10^-4 M by sulforhodamine B assay; settings: read-out: Activity
[43] = system: SNB-19; assay: Growth inhibition of human SNB19 cells assessed as cell growth at 10^-6 M by sulforhodamine B assay; settings: read-out: Activity
[44] = read-out: LC50 (the source's name)
[45] = read-out: pLC50 (the source's name) (converted)

With `C/C=C(/C)C(=O)O[C@@H]1CC(C)(C)C[C@H]2C3=CC[C@@H]4[C@@]5(C)CC[C@H](O)C(C)(C)[C@@H]5CC[C@@]4(C)[C@]3(C)CC[C@@]12C(=O)O` [Reduced Lantadene A] the growth at 0.1 µM [1] was 90%, the growth at 100 µM [2] was -63% and the growth at 0.01 µM [3] was 93%. It also gave a GI50 ([4]; read-out: GI50) of 2.31 µM, a CC50 [4, 44] of over 100 µM and a TGI ([4]; read-out: TGI) of 6.62 µM. It also gave a GI50 ([4]; read-out: pGI50 (converted)) of 2.29 µM, a CC50 [4, 45] of over 100 µM and a TGI ([4]; read-out: pTGI (converted)) of 6.61 µM. For the same compound, the growth at 0.1 µM [5] was 76%, the growth at 1 µM [6] was 85% and the growth at 0.1 µM [7] was 108%. For the same compound, the growth at 0.1 µM [8] was 96%, the growth at 0.1 µM [9] was 96% and the growth at 0.01 µM [10] was 99%. The growth at 0.01 µM [11] was 101%, the growth at 0.1 µM [12] was 104% and the growth at 1 µM [13] was 87%. The growth at 0.01 µM [14] was 93%, the GI50 ([15]; HCC 2998, read-out: GI50) was 1.88 µM and the CC50 ([15]; HCC 2998, read-out: LC50 (the source's name)) was 6.43 µM. For the same compound, the TGI ([15]; HCC 2998, read-out: TGI) was 3.47 µM, the GI50 ([15]; HCC 2998, read-out: pGI50 (converted)) was 1.86 µM and the CC50 ([15]; HCC 2998, read-out: pLC50 (the source's name) (converted)) was 6.46 µM. The TGI ([15]; HCC 2998, read-out: pTGI (converted)) was 3.47 µM, the growth at 0.01 µM [16] was 83% and the growth at 1 µM [17] was 99%. The growth at 0.01 µM [18] was 105%, the GI50 ([19]; read-out: GI50) was 2.39 µM and the CC50 [19, 44] was 91.2 µM. For the same compound, the TGI ([19]; read-out: TGI) was 5.93 µM, the GI50 ([19]; read-out: pGI50 (converted)) was 2.4 µM and the CC50 [19, 45] was 91.2 µM. The TGI ([19]; read-out: pTGI (converted)) was 5.89 µM, the growth at 0.1 µM [20] was 104% and the growth at 1 µM [21] was 104%. It also gave a growth at 100 µM [22] of -59%, a growth at 0.1 µM [23] of 108% and a growth at 100 µM [24] of -73%. It also gave a GI50 ([25]; read-out: GI50) of 1.85 µM, a CC50 [25, 44] of over 100 µM and a TGI ([25]; read-out: TGI) of 8.71 µM. The GI50 ([25]; read-out: pGI50 (converted)) was 1.86 µM, the CC50 [25, 45] was over 100 µM and the TGI ([25]; read-out: pTGI (converted)) was 8.71 µM. For the same compound, the growth at 100 µM [26] was -65%, the growth at 0.01 µM [27] was 78% and the growth at 100 µM [28] was -39%. The growth at 100 µM [29] was -2%, the growth at 1 µM [30] was 96% and the GI50 ([31]; read-out: GI50) was 1.19 µM. It also gave a CC50 [31, 44] of 6.37 µM, a TGI ([31]; read-out: TGI) of 2.76 µM and a GI50 ([31]; read-out: pGI50 (converted)) of 1.2 µM. It also gave a CC50 [31, 45] of 6.31 µM, a TGI ([31]; read-out: pTGI (converted)) of 2.75 µM and a growth at 0.1 µM [32] of 98%. For the same compound, the growth at 100 µM [33] was -71%, the growth at 0.1 µM [34] was 99% and the growth at 0.1 µM [35] was 92%. For the same compound, the growth at 100 µM [36] was -66%, the GI50 ([37]; read-out: GI50) was 11.8 µM and the CC50 [37, 44] was over 100 µM. It also gave a TGI ([37]; read-out: TGI) of 41.1 µM, a GI50 ([37]; read-out: pGI50 (converted)) of 11.7 µM and a CC50 [37, 45] of over 100 µM. The TGI ([37]; read-out: pTGI (converted)) was 40.7 µM, the growth at 100 µM [38] was -52% and the growth at 0.01 µM [39] was 99%. It also gave a growth at 1 µM [40] of 61%, a growth at 0.01 µM [41] of 97% and a growth at 100 µM [42] of -34%. The growth at 1 µM [43] was 85%.
